In patent US4112219A, “Acyl derivatives of antibiotic BM123γ” (American Cyanamid Company, priority 1977, dated 1978):
“And” between values parts separate entries of the source, which are not always exact repeats. Identical values can stand only once.

Test system: Escherichia coli US311
Test: in vivo activity against Escherichia coli US311 in mice (systemic lethal infection, single subcutaneous dose)
Design: species or system Escherichia coli US311 in Carworth Farms CF-1 mice
Conditions: infected intraperitoneally with lethal dose of E. coli US311
Source text: The starting material for the acylation procedure has been defined hereinabove as antibiotic BM123γ having formula (IV). When R' is structure (II) in formula (IV), then the antibiotic is BM123γ1 and when R' is structure (III) in formula (IV), then the antibiotic is BM123γ2. […] The preparation and properties of trans-BM123γ1 and trans-BM123γ2 are disclosed in U.S. Pat. No. 4,007,167 whereas the preparation and properties of cis-BM123γ1 and cis-BM123γ2 are set forth in U.S. Pat. No. 4,018,972. The term cis-BM123γ refers to a mixture in any proportion of cis-BM123γ1 and cis-BM123γ2 whereas the term trans-BM123γ refers to a mixture in any proportion of trans-BM123γ1 and trans-BM123γ2. The expression antibiotic BM123γ refers to either cis-BM123γ or trans-BM123γ. […] These new substances show high in vivo antibacterial activity in mice against Escherichia coli US311 when administered by a single subcutaneous dose to groups of Carworth Farms CF-1 mice, weight about 20 grams, infected intraperitoneally with a lethal dose of this bacteria in a 10^-3 trypticase soy broth TSP dilution of a 5 hour TSP blood culture. In Table I below is set forth the in vivo activity of typical products of this invention (prepared by the procedure of Example 1 from the indicated activated ester which was prepared by the procedure of Example 2 or Example 3) against Escherichia coli US311 in mice. The activity is expressed in terms of the ED50 or the dose in mg./kg. of body weight required to protect 50% of the mice against E. coli. The derivative name in Table I indicates whether cis-BM123 or trans-BM123 was employed as starting material.

Row | Substance | ED50 (dose required to protect 50% of the mice against E. coli)
1 | 1,4-Thiapyran(2)carbonyl-trans-BM123γ | 2.0 mg./kg. of Body Weight
2 | 1-Naphthoyl-trans-BM123γ | 0.5 mg./kg. of Body Weight
3 | 2,3,6-Trichlorobenzoyl-trans-BM123γ | 2.0 mg./kg. of Body Weight
4 | 2,4-Dichlorobenzoyl-trans-BM123γ | 0.5 mg./kg. of Body Weight and 1.0 mg./kg. of Body Weight
5 | 2,5-Dibromobenzoyl-trans-BM123γ | 2.0 mg./kg. of Body Weight
6 | 2,6-Dimethoxybenzoyl-trans-BM123γ | 2.0 mg./kg. of Body Weight
7 | 2-Furyl-trans-BM123γ | 1.0 mg./kg. of Body Weight
8 | 2-Methylpropionyl-trans-BM123γ | 2.0 mg./kg. of Body Weight
9 | 2-Napthyloxyacetyl-trans-BM123γ | 0.5 mg./kg. of Body Weight
10 | 2-Thienyl-trans-BM123γ | 1.0 mg./kg. of Body Weight
11 | 3,4,5-Trimethoxybenzoyl-trans-BM123γ | 2.0 mg./kg. of Body Weight
12 | 3,4-Dichlorobenzoyl-trans-BM123γ | 0.5 mg./kg. of Body Weight and 1.0 mg./kg. of Body Weight
13 | 3,4-Dimethylbenzoyl-trans-BM123γ | 2.0 mg./kg. of Body Weight
14 | 3,5-Dichlorobenzoyl-trans-BM123γ | 0.5 mg./kg. of Body Weight
15 | 3,5-Dinitrobenzoyl-trans-BM123γ | 1.0 mg./kg. of Body Weight
16 | 3-Methoxy-2-naphthoyl-trans-BM123γ | 2.0 mg./kg. of Body Weight
17 | 4-(p-Chlorophenylsulfonyl)-benzoyl-trans-BM123γ | 2.0 mg./kg. of Body Weight
18 | 4-Carbethoxy-3,5-dimethoxybenzoyl-trans-BM123γ | 2.0 mg./kg. of Body Weight
19 | 4-Ethyl-2,3-diketopiperazine-1-carbonyl-trans-BM123γ | 2.0 mg./kg. of Body Weight
20 | 4-Fluoro-1-naphthoyl-trans-BM123γ | 1.0 mg./kg. of Body Weight
21 | 4-Oxy-4H-thiapyran-3-yl-carbonyl-trans-BM123γ | 2.0 mg./kg. of Body Weight
22 | 8-Bromo-1-napthoyl-trans-BM123γ | 1.5 mg./kg. of Body Weight
23 | Benzoyl-trans-BM123γ | 4.0 mg./kg. of Body Weight

Row | Substance | ED50 (dose required to protect 50% of the mice against E. coli)
24 | Carbethoxyformyl-trans-BM123γ | 1.0 mg./kg. of Body Weight
25 | Chlorodiphenylacetyl-trans-BM123γ | 2.0 mg./kg. of Body Weight
26 | Cinnamoyl-trans-BM123γ | 2.0 mg./kg. of Body Weight
27 | Cyclopropylcarbonyl-trans-BM123γ | 2.0 mg./kg. of Body Weight
28 | Decanoyl-trans-BM123γ | 2.0 mg./kg. of Body Weight
29 | Methoxyacetyl-trans-BM123γ | 2.0 mg./kg. of Body Weight
30 | Pentachlorobenzoyl-trans-BM123γ | 2.0 mg./kg. of Body Weight
31 | Pentafluorobenzoyl-trans-BM123γ | 0.5 mg./kg. of Body Weight
32 | Phenoxyacetyl-trans-BM123γ | 1.0 mg./kg. of Body Weight
33 | Propionyl-trans-BM123γ | 4.0 mg./kg. of Body Weight
34 | Pyridine-n-oxide-2-carbonyl-trans-BM123γ | 2.0 mg./kg. of Body Weight
35 | Trichloroacetyl-trans-BM123γ | 1.0 mg./kg. of Body Weight
36 | Trimethylacetyl-trans-BM123γ | 1.0 mg./kg. of Body Weight
37 | m-Bromobenzoyl-trans-BM123γ | 0.75 mg./kg. of Body Weight
38 | m-Fluorobenzoyl-trans-BM123γ | 1.0 mg./kg. of Body Weight
39 | m-Hydroxybenzoyl-trans-BM123γ | 1.5 mg./kg. of Body Weight
40 | m-Mercaptobenzoyl-trans-BM123γ | 2.0 mg./kg. of Body Weight
41 | m-Methylbenzoyl-trans-BM123γ | 1.0 mg./kg. of Body Weight
42 | m-Phenoxybenzoyl-trans-BM123γ | 1.5 mg./kg. of Body Weight
43 | o-Acetoxybenzoyl-trans-BM123γ | 2.0 mg./kg. of Body Weight
44 | o-Benzoylbenzoyl-trans-BM123γ | 2.0 mg./kg. of Body Weight
45 | o-Benzylbenzoyl-trans-BM123γ | 2.0 mg./kg. of Body Weight
46 | o-Fluorobenzoyl-trans-BM123γ | 1.0 mg./kg. of Body Weight

Row | Substance | ED50 (dose required to protect 50% of the mice against E. coli)
47 | o-Hydroxybenzoyl-trans-BM123γ | 8.0 mg./kg. of Body Weight
48 | o-Mercaptobenzoyl-trans-MB123γ | 2.0 mg./kg. of Body Weight
49 | o-Methylbenzoyl-trans-BM123γ | 2.0 mg./kg. of Body Weight and 1.0 mg./kg. of Body Weight
50 | p-Acetaminobenzoyl-trans-BM123γ | 2.0 mg./kg. of Body Weight
51 | p-Acetylbenzoyl-trans-BM123γ | 2.0 mg./kg. of Body Weight
52 | p-Biphenylcarbonyl-trans-BM123γ | 2.0 mg./kg. of Body Weight
53 | p-Chlorobenzoyl-trans-BM123γ | 4.0 mg./kg. of Body Weight
54 | p-Cyanobenzoyl-trans-BM123γ | 4.0 mg./kg. of Body Weight
55 | p-Dimethylaminobenzoyl-trans-BM123γ | 2.0 mg./kg. of Body Weight
56 | p-Ethoxybenzoyl-trans-BM123γ | 2.0 mg./kg. of Body Weight
57 | p-Fluorobenzoyl-trans-BM123γ | 1.0 mg./kg. of Body Weight
58 | p-Formylbenzoyl-trans-BM123γ | 2.0 mg./kg. of Body Weight
59 | p-Hydroxybenzoyl-trans-BM123γ | 2.0 mg./kg. of Body Weight
60 | p-Methoxybenzoyl-trans-BM123γ | 1.0 mg./kg. of Body Weight
61 | p-Methylthiobenzoyl-trans-BM123γ | 4.0 mg./kg. of Body Weight
62 | p-Nitrobenzoyl-trans-BM123γ | 0.5 mg./kg. of Body Weight
63 | p-Sulfamylbenzoyl-trans-BM123γ | 0.5 mg./kg. of Body Weight
64 | p-Trifluoromethoxybenzoyl:trans-BM123γ | 1.0 mg./kg. of Body Weight
65 | p-Trifluoromethylbenzoyl-trans-BM123γ | 4.0 mg./kg. of Body Weight
66 | p-t-Butylbenzoyl-trans-BM123γ | 4.0 mg./kg. of Body Weight
67 | α-Bromopropionyl-trans-BM123γ | 2.0 mg./kg. of Body Weight
68 | α-Phenoxypropionyl-trans-BM123γ | 2.0 mg./kg. of Body Weight and 1.0 mg./kg. of Body Weight

Same assay, conditions: infected intraperitoneally with lethal dose of E. coli US311, listed as α-Phenyoxypropionyl-trans-BM123γ

Row | Substance | ED50 (dose required to protect 50% of the mice against E. coli)
69 | α-Phenoxypropionyl-trans-BM123γ | 2.0 mg./kg. of Body Weight
